Reference: patent publication US20050165112A1, “Therapeutic agent for inflammatory intestinal diseases containing hydroxamic acid compound as active ingredient” (priority 2002, published 2005)

Key:
Type in all cases: in vivo
[1] = tested on: acetic acid-induced colitis in male SD (CD) IGS rats; experiment: Acetic acid-induced colitis model; conditions: rat, 0.3 or 3 mg/kg/day, 24 hours after colitis induction
Experimental: Male SD (CD) IGS rats (7 weeks old) were anesthetized with sodium pentobarbital. Colitis was induced by intracolonic instillation of 0.25 mL of 5% acetic acid with a disposable sonde for oral administration for mouse, which is attached to 1 mL syringe (Terumo). The sonde was inserted to 5 cm from anus and acetic acid was infused for 10 seconds. After the removal of the sonde, the anus was plugged for 1 minute. Then the colon was washed with approximate 10 mL of physiological saline with a disposable sonde for oral administration for rat, which was attached to 50 mL syringe (Terumo), and the sonde was inserted to 8 cm from anus.
The test compound or vehicle was administered to animals before 30 minutes and after 8 hours of the colitis induction, at each time half of a dairy dose was administered.
After 24 hours of colitis induction, all colons which from anus to cecum, were removed, the content was washed away with saline solution. After trimming of the washed colon, the colon was cut at 9 cm from anus, wiped out the solution, and weighed with electronic measure. Then the injured area (mm^2) of dissected colon was measured by image analysis.
N-hydroxy-5-hydroxy-2 (S)-methyl-4(S)—(4-phenoxybenzoyl)aminopentanamide (compound (1)) was used as a test compound. Compound (1) was administered to animals at doses of 0.3 or 3 mg/kg/day. […]

rat = experiment: Single oral administration toxicity to rat
Experimental: The toxicity of the compounds of the present invention is very low and therefore, the compounds may be considered safe for pharmaceutical use. For example, a minimum of lethal dose of the compound (2) by single oral administration to rat was 2000 mg/kg.

[2] = tested on: TNBS-induced colitis in male SD (CD) IGS rats; experiment: TNBS-induced colitis model; conditions: rat, 1, 3 and 10 mg/kg/day, three days after TNBS induction
Experimental: Male SD (CD) IGS rats (7 weeks old) were anesthetized with sodium pentobarbital. A flexible sonde for oral administration was inserted to 8 cm from the anus. Colitis was induced by intracolonic instillation of 50 mg of 2,4,6-trinitrobenzenesulfonic acid (TNBS) dissolved in 0.25 mL of 20% ethanol, and the anus was plugged and leaved for 2 hours. Test compound was administered at 30 minutes before and 8 hours after the TNBS induction, since the next day of TNBS induction they were administered half of a dairy dose at each time, twice daily in the morning and the evening. Three days later the animals were sacrificed with bleeding under ether anesthetization. All colons were removed, the contents was washed out with saline solution, and then measured the length. After the trimming of the colons, 9 cm segment from the anus was obtained, the water was removed on the paper, and the wet weight was measured with electric scale.
N-hydroxy-5-ethoxymethyloxy-2 (S)-methyl-4(S)— (4-phenoxylbenzoil)aminopentanamide (compound (2)) was used as a test compound. FIG. 3 and FIG. 4 show the effects of compound (2) at the doses of 1, 3 and 10 mg/kg/day on the length and the wet weight of colons respectively.

| Compound | injured area ([1]; FIG. 1) | increase in intestine edema (wet weight of colon) ([1]; FIG. 2) | minimum of lethal dose (rat) [mg/kg] | shrinkage of colon (length of all colons) ([2]; FIG. 3) | increase in intestine edema (wet weight of colon) ([2]; FIG. 4) |
| --- | --- | --- | --- | --- | --- |
| C[C@@H](C[C@@H](CO)NC(=O)c1ccc(Oc2ccccc2)cc1)C(=O)NO [compound (1), N-hydroxy-5-hydroxy-2 (S)-methyl-4(S)—(4-phenoxybenzoyl)aminopentanamide] | suppressive tendency to the injured area | suppressed the increase in intestine edema | – | – | – |
| CCOCOC[C@H](C[C@H](C)C(=O)NO)NC(=O)c1ccc(Oc2ccccc2)cc1 [compound (2), N-hydroxy-5-ethoxymethyloxy-2 (S)-methyl-4(S)— (4-phenoxylbenzoil)aminopentanamide] | – | – | 2000 | suppressed the shrinkage of colon | suppressed the shrinkage of colon and the increase in intestine edema |
